Literature values, collected in patent publication US20150025006A1, “Pharmaceutical Combinations Including Anti-Inflammatory and Antioxidant Conjugates Useful for Treating Metabolic Disorders” (Genmedica Therapeutics SL, priority 2011, published 2015).

Assays:
[1] = tested on: Zucker fa/fa rats or ob/ob mice; details: 120 mg/kg/day, subcutaneous infusion, 3-4 weeks
human diabetic patients = details: 4.5 g/day of salsalate

For `O=C(O)c1ccccc1O` [Salicylate], the anti-diabetic effects [1] is given as “anti-diabetic effects, reduction in fasting blood glucose, and glucose tolerance improvement”.

In the case of `O=C(Oc1ccccc1C(=O)O)c1ccccc1O` [salsalate], the “side effects, such as tinnitus, enhanced by” value (human diabetic patients) is given as 66%.
